Experimental data reported in patent publication US12252492B2, “Substituted fused pyrrolo-diazepinones and uses thereof” (Northwestern University, priority 2018, dated 2025).

Tests used:
Type in all cases: cell-based, human
HCC-2998 = test: NCI60 one-dose screen, HCC-2998; conditions: HCC-2998 (Colon Cancer); NCI 60 one-dose, 10^-5 M
Protocol: (§1) Anti-cancer activity screening of all compounds was performed by the NCI Developmental Therapeutics Program (DTP) through their NCI60 screening initiative. Assay details can be found at the website dtp.cancer.gov/discovery_development/nci-60/methodology.htm. Information from this website is reproduced here for convenience.
(§2) As of early 2007 all compounds submitted to the NCI 60 Cell screen are tested initially at a single high dose (10^-5 M) in the full NCI 60 cell panel. Only compounds which satisfy pre-determined threshold inhibition criteria in a minimum number of cell lines will progress to the full 5-dose assay. The threshold inhibition criteria for progression to the 5-dose screen was selected to efficiently capture compounds with anti-proliferative activity based on careful analysis of historical DTP screening data. The threshold criteria may be updated as additional data becomes available.
(§3) The One-dose data will be reported as a mean graph of the percent growth of treated cells and will be similar in appearance to mean graphs from the 5-dose assay. […]
(§4) Following drug addition, the plates are incubated for an additional 48 h at 37° C., 5% CO2, 95% air, and 100% relative humidity. […] Bound stain is subsequently solubilized with 10 mM trizma base, and the absorbance is read on an automated plate reader at a wavelength of 515 nm. […]

HCT-116 = test: NCI60 one-dose screen, HCT-116; conditions: HCT-116 (Colon Cancer); NCI 60 one-dose, 10^-5 M
Protocol: as §1, §2, §3, §4

SF-268 = test: NCI60 one-dose screen, SF-268; conditions: SF-268 (CNS Cancer); NCI 60 one-dose, 10^-5 M
Protocol: as §1, §2, §3, §4

SK-MEL-5 = test: NCI60 one-dose screen, SK-MEL-5; conditions: SK-MEL-5 (Melanoma); NCI 60 one-dose, 10^-5 M
Protocol: as §1, §2, §3, §4

786-0 = test: NCI60 one-dose screen, 786-0; conditions: 786-0 (Renal Cancer); NCI 60 one-dose, 10^-5 M
Protocol: as §1, §2, §3, §4

DU-145 = test: NCI60 one-dose screen, DU-145; conditions: DU-145 (Prostate Cancer); NCI 60 one-dose, 10^-5 M
Protocol: as §1, §2, §3, §4

CC(=O)N1c2ccccc2NC2=C(C(=O)N(C)C2(C)C)C1c1ccccc1 (stereo not drawn) [NUCC-60872]
Growth Percent (HCC-2998): 60.81% | Growth Percent (HCT-116): 24.91% | Growth Percent (SF-268): 42.99% | Growth Percent (SK-MEL-5): 27.50% | Growth Percent (786-0): 80.09% | Growth Percent (DU-145): 78.98%

CC(=O)N1c2ccccc2NC2=C(C(=O)N(Cc3ccccc3)C2(C)C)C1c1ccco1 (stereo not drawn) [NUCC-608455]
Growth Percent (HCC-2998): 3.73% | Growth Percent (HCT-116): 7.52% | Growth Percent (SF-268): 42.68% | Growth Percent (SK-MEL-5): 7.88% | Growth Percent (786-0): 21.45% | Growth Percent (DU-145): 7.82%
